For test [1], the system named is menin-expressing MEF cells. The experiment in a line: Cell growth of menin-expressing MEFs. The test is classed as cell-based, mouse. To be noted: increasing concentrations from day 1; counted after six days of treatment. The procedure:
(§1) FIG. 15. Menin inhibition antagonizes menin mediated suppression of cell proliferation. […] Vector and menin-expressing MEFs (inset) were seeded at 0.25×10^6 cells/10 cm dish on day 0, treated with either DMSO or increasing concentrations of MI-2-2 from day 1 as indicated, and counted after six days of treatment.
(§2) Vector and menin-expressing MEFs (FIG. 15, inset) were seeded at 0.25×10^6 cells/10 cm dish on day 0, treated with either DMSO or increasing concentrations of MI-2-2 from day 1 as indicated, and counted after six days of treatment. Thus, inhibition of menin antagonizes menin mediated suppression of cell proliferation.

The test system of test [2] is menin-null (vector) MEF cells. The test can be described thus: Cell growth of menin-null (vector) MEFs. The test is classed as cell-based, mouse. Conditions: increasing concentrations from day 1; counted after six days of treatment. The procedure:
as §1, §2

In a further test the test system is murine islets. The experiment in a line: Proliferation (Ki67) in isolated murine islets. The test is classed as cell-based, C57BL/6J mice. The text has this:
FIG. 14. Menin inhibitor (MI-2-2) increases proliferation in murine islets, as evidenced by increased number of cells positive for the proliferation marker Ki67. […] Isolated murine islets were pre-cultured for one day before treatment with drug or vehicle.
The ability of MI-2-2 to stimulate cell growth was further tested in murine islets isolated from C57BL/6J mice (Jackson Laboratories, Bar Harbor, Me.).

In a further test the test system is GLP1 receptor. The test can be described thus: GLP1 receptor expression in human islets (real time quantitative PCR). The test is classed as cell-based. To be noted: 50 nM, 200 nM or 500 nM for 2 days, vs DMSO. As to the method: FIG. 16. Menin inhibition increases expression of the GLP1 receptor Human islets were cultured in a humidified incubator with 5% CO2 at 37° C. After 24 hours, the islets were treated with vehicle control (DMSO) or varying concentrations of MI-2-2 (50 nM, 200 nM or 500 nM) for 2 days. The islets were harvested and. RNA was isolated and was reverse transcribed to cDNA. cDNA was quantitated by real time quantitative PCR and normalized using β-actin as endogenous control.
Menin inhibition also increases expression of GLP1 receptor, which is the receptor mediating the pro-islet incretin's ability to reduce blood glucose (FIG. 16). Human islets were procured from the Islet Transplantation Center, University of Pennsylvania and cultured in a humidified incubator with 5% CO2 at 37° C. After 24 hours, the islets were treated with vehicle control (DMSO) or varying concentrations of MI-2-2 (50 nM, 200 nM or 500 nM) for 2 days. […] RNA was isolated using the RNeasy Mini Kit (Qiagen, Germantown, Md.) and was reverse transcribed to cDNA using the SuperScript® III Reverse Transcriptase (Life Technologies, Grand Island, N.Y.). cDNA was quantitated by real time quantitative PCR using QuantiTect SYBR® Green (Qiagen, Germantown, Md.) on a 7500 Fast Real time PCR system (AppliedBiosystems, Life Technologies, Grand Island, N.Y.) and normalized using β-actin as endogenous control.

“Also recorded” adds a separate entry of the source.

Regarding `CC1(C)CN=C(N2CCN(c3ncnc4sc(CC(F)(F)F)cc34)CC2)S1` [MI-2-2], the “cell growth of menin-expressing MEFs” value in test [1] is “increased cell growth in menin MEFs in a concentration dependent manner; also recorded: increases proliferation of menin-expressing MEF cells”. Besides, the “cell growth of menin-null (vector) MEFs” value in test [2] is on record as “did not do so in vector MEFs; also recorded: not menin-null (vector) cells”. The “Ki67 staining in murine islets” value in the test with murine islets (500 nM for two days, compared with vehicle control) was “increased Ki67 staining”. In addition, the “Ki67 positive cells per unit area in murine islets” value in the test on murine islets (treatment for 2 days, concentration dependence) is reported as “increased the number of proliferating cells in a concentration dependent manner; also recorded: dose dependent increase”. In the test on GLP1 receptor, the “expression of GLP1 receptor relative to β-actin expression” value is on record as “about 2 fold”.

The record behind these values is patent publication US20170119769A1, “SCAFFOLDS FOR INHIBITORS OF MENIN-MLL INTERACTIONS” (THE TRUSTEES OF THE UNIVERSITY OF PENNSYLVANIA, priority 2014, published 2017).
